Experimental data as given in patent US20150342960A1, “DRUG COMBINATIONS FOR TREATMENT OF MELANOMA AND OTHER CANCERS” (Memorial Sloan Kettering Cancer Center, priority 2014, published 2015).
Where two headings read alike, the source gives them in different places.

Experiments:
Type in all cases: cell-based
AKTpS473 = assay: Western blot IC40 of downstream effector readout; settings: 40% inhibition of AKTpS473, Western Blot
Experimental: (§1) In total, cells were treated with 89 unique perturbations (Table 3). In paired combinations, each drug concentration was selected to inhibit the readout for the presumed target or the downstream effectors by 40% (IC40) as determined by Western Blot experiments. In single agent perturbations, each drug is applied at two different concentrations, IC40 and 2×IC40.

P27/Kip1 = assay: Western blot IC40 of downstream effector readout; settings: IC40 on P27/Kip1 readout
Experimental: as §1

c-Myc [1] = assay: c-Myc level by reverse phase protein arrays (RPPA); settings: Skmel133 cells, average of three replicates
Experimental: Proteomic response profiles to perturbations were measured using reverse phase protein arrays. The cells were lysed 24 hours after drug treatment. Three biological replicates were spotted for each sample (e.g., drug condition) on RPPA slides. Each slide was stained with the respective Ab and 138 proteomic entities (total or phosho levels) and were profiled using specific Abs with the RPPA (Table 3).
FIG. 14 depicts changes in c-Myc levels in response to perturbations in Skmel133 cells as measured in RPPA experiments. Each data point was log normalized with respect to the c-Myc level in unperturbed condition. c-Myc level was highest in the presence of CDK4i. Various drug combinations that included STAT3 and mTOR inhibitors follow CDK4i combinations. cMyc level was lowest when cells were perturbed with MEK, BRAF, SRC, PKC and HDAC inhibitors, respectively. Each data-point is the average of RPPA readouts from three replicates.

BRD4 = assay: Western blot of BRD4 level; settings: 24 hours after JQ1 treatment
Experimental: FIGS. 6A-6E illustrate the combined targeting of c-Myc with MEK and BRAF leads to synergistic response in melanoma cells. […] The leftward shift of isocurves implies synergistic interactions between the applied perturbations. u denotes strength of in silico perturbations. […] The BRD4 level is unchanged in response to JQ1 treatment. […] C-Myc expression is targeted with BRD4 inhibitor, JQ1. […] Cell viability is measured using the resazurin assay. […] The combination index (CI) calculated using the drug dose response curves quantifies the drug interactions between JQ1, MEKi and RAFi (left panel). CI for a given level of inhibition is a measure of the fractional shift between the combination doses (C1 and C2) and the single agent's inhibitory concentration (Cx,1, Cx,2). It is formulated as CI=(C1/Cx,1)[…](C2/Cx,2). Amax is the response of melanoma cells to JQ1, MEKi and RAFi at highest doses applied (right panel). 1-Amax is the fraction of cells alive in response to highest drug dose normalized with respect to the non-drug treated condition. […] 86% of cells are in G1 state 48 hours after JQ1 treatment, while 42% of the cells are in G1 state before drug treatment (error bars: ±SEM in 3 biological replicates).

SkMel133 cells [2] = assay: Apoptotic response of melanoma cells; settings: 48 hours after treatment; 3% in unperturbed cells
Experimental: Finally, the cell cycle progression and apoptotic response of melanoma cells to JQ1 were measured. JQ1 (500 nM) induces a 50% increase in cells at G1-phase compared to the unperturbed cells (FIG. 8). […] More specifically, FIG. 8 depicts cell cycle arrest response of melanoma cells to JQ1 and MEKi combination. 51% and 88% of cells are in G1 stage 24 hours after JQ1 and MEKi treatment, respectively. JQ1+MEKi combination has an increased effect on G1 cell cycle arrest (G1=92%). 39% of cells are in G1 when they are not treated with drugs (error bars in right panel: ±SE in 3 biological replicates).

SkMel133 cells [3] = assay: Cell cycle progression, flow cytometry; settings: for cells in G1 stage: 24 hours after treatment, 39% when not treated
Experimental: All phenotypic measurements were made in perturbation conditions identical to those in proteomic measurements. […] The percentage of cells in the G1, G2/M, and S phases and sub-G1 fraction were recorded based on the respective distribution of DNA content in each phase.

c-Myc [4] = assay: Western blot of c-Myc expression; settings: SkMel133, western blot, 24 hours after drug treatment
From the text: First, it was postulated whether c-Myc levels in SkMel133 cells could be targeted using JQ1. […] Therefore, total c-Myc levels are targeted using JQ1, either as a single agent or in combination with inhibitors of the RAF/MEK/ERK pathway.

SkMel133 cells [5] = assay: Cell viability, resazurin assay; settings: for Emax: read-out: maximal effect level (Amax, response to the drugs at highest doses)
Experimental: RAFi resistant melanoma cell line SkMel133 was used in all perturbation experiments. SkMel133 cells were perturbed with 12 targeted drugs applied as single agents or in paired combinations.
All phenotypic measurements were made in perturbation conditions identical to those in proteomic measurements. Cell viability and cell cycle progression were measured 72 hours after drug treatment using the Resazurin assay and flow cytometry analysis respectively. The percentage of cells in the G1, G2/M, and S phases and sub-G1 fraction were recorded based on the respective distribution of DNA content in each phase.

4EBP1pS65 = assay: Western blot IC40 of downstream effector readout; settings: 40% inhibition of 4EBP1pS65, Western Blot
Experimental: as §1

GSK3pS21 = assay: Western blot IC40 of downstream effector readout; settings: 40% inhibition of GSK3pS21, Western Blot
Experimental: as §1

MAPK1pT202 = assay: Western blot IC40 of downstream effector readout; settings: 40% inhibition of MAPK1pT202, Western Blot
Experimental: as §1

S6pS240 = assay: Western blot IC40 of downstream effector readout; settings: 40% inhibition of S6pS240, Western Blot
Experimental: as §1

STAT3pY705 = assay: Western blot IC40 of downstream effector readout; settings: 40% inhibition of STAT3pY705, Western Blot
Experimental: as §1

[6] = SkMel133, highest doses applied, normalized to non-drug treated condition

## O=c1[nH]c2ccccc2n1C1CCN(Cc2ccc(-c3nc4cc5nc[nH]c5cc4nc3-c3ccccc3)cc2)CC1 [AKTi 1/2]
AKTpS473
  Dose 1 (IC40 of downstream effector readout): 0.005 µM

## O=C(CCCCCCSc1ccc2ccccc2c1)NO [HNHA]
P27/Kip1
  Dose 1 (IC40 of downstream effector readout): 6,000 nM
c-Myc [1]
  c-Myc level relative to unperturbed condition: lowest

## Cc1sc2c(c1C)C(c1ccc(Cl)cc1)=N[C@@H](CC(=O)OC(C)(C)C)c1nnc(C)n1-2 [JQ1]
BRD4
  BRD4 level: unchanged
SkMel133 cells [2]
  apoptosis: 11%
SkMel133 cells [3]
  cells in G1 stage: 51%
SkMel133 cells [3]; 48 hours after treatment, 42% before drug treatment
  cells in G1 state: 86%
SkMel133 cells [3]; JQ1 500 nM
  increase in cells at G1-phase compared to the unperturbed cells: 50%
c-Myc [4]
  c-Myc expression: reduced
SkMel133 cells [5]; SkMel133, combined with 5 nM MEK inhibitor, read-out: concentration of JQ1 reducing viability by 50%
  IC50: 0.1 µM
SkMel133 cells [5]; [6]
  maximal effect level (Amax, response to the drugs at highest doses): 10%
SkMel133 cells [5]; SkMel133, single agent, read-out: cell viability IC50
  IC50: 0.2 µM

## COc1ccc(C2=NC(c3ccc(Cl)cc3)C(c3ccc(Cl)cc3)N2C(=O)N2CCNC(=O)C2)c(OC(C)C)c1 (stereo not shown) [Nutlin]
4EBP1pS65
  Dose 1 (IC40 of downstream effector readout): 3,000 nM

## CC(C)(C)c1nc2c3cc[nH]c(=O)c3c3cc(F)ccc3c2[nH]1 [P6]
GSK3pS21
  Dose 1 (IC40 of downstream effector readout): 0.02 µM

## O=C(NOC[C@H](O)CO)c1ccc(F)c(F)c1Nc1ccc(I)cc1F [PD0325901]
MAPK1pT202
  Dose 1 (IC40 of downstream effector readout): 0.0015 µM
c-Myc [1]
  c-Myc level relative to unperturbed condition: lowest
SkMel133 cells [3]
  cells in G1 stage: 88%
SkMel133 cells [5]; [6]
  Emax: 13%

## CCCS(=O)(=O)Nc1ccc(F)c(C(=O)c2c[nH]c3ncc(Cl)cc23)c1F [PLX4720]
MAPK1pT202
  Dose 1 (IC40 of downstream effector readout): 0.06 µM
c-Myc [1]
  c-Myc level relative to unperturbed condition: lowest
SkMel133 cells [5]; RAFi resistant SkMel133 cells, single agent, read-out: IC50 for single agent
  IC50: > 1 µM
SkMel133 cells [5]; SkMel133, combined with JQ1 (120 nM), read-out: concentration of RAFi reducing cell viability by 50%
  IC50: 0.12 µM
SkMel133 cells [5]; [6]
  Emax: 12%

## Cn1cc(C2=C(c3cn(CCCN)c4ccccc34)C(=O)NC2=O)c2ccccc21 [RO-31-7549]
S6pS240
  Dose 1 (IC40 of downstream effector readout): 3.5 µM
c-Myc [1]
  c-Myc level relative to unperturbed condition: lowest

## O=[N+]([O-])c1ccc2c(c1)S(=O)(=O)C=C2 [Stattic]
STAT3pY705
  Dose 1 (IC40 of downstream effector readout): 0.6 µM

## CO[C@H]1C[C@@H]2CC[C@@H](C)[C@@](O)(O2)C(=O)C(=O)N2CCCC[C@H]2C(=O)O[C@H]([C@H](C)C[C@@H]2CC[C@@H](OC(=O)C(C)(CO)CO)[C@H](OC)C2)CC(=O)[C@H](C)/C=C(\C)[C@@H](O)[C@@H](OC)C(=O)[C@H](C)C[C@H](C)/C=C/C=C/C=C/1C [Temsirolimus]
S6pS240
  Dose 1 (IC40 of downstream effector readout): 0.0003 µM

## FC(F)c1nc2ccccc2n1-c1nc(N2CCOCC2)nc(N2CCOCC2)n1 [ZSTK474]
AKTpS473
  Dose 1 (IC40 of downstream effector readout): 0.6 µM
